Legend:
[1] = system: recombinant NL-Rluc virus; assay: Inhibition of HIV replication (NL-Rluc virus); format: cell-based; conditions: Human immunodeficiency virus 1, read-out: Antiviral Activity
purified integrase = purified integrase (Human immunodeficiency virus type 1 group M subtype B, UniProt P12497); assay: HIV-Integrase binding assay (competition with radiolabeled compound A)
Procedure: HIV-Integrase binding assay. In this assay competitive binding experiments with test compounds and a radiolabeled integrase inhibitor (compound A) are performed against purified integrase. SPA bead/DNA/enzyme complexes were prepared as for the integrase inhibition assay except, to each well, 0.69 μl of integrase enzyme (0.42 mg/μl) was used per 2 μl of LTR DNA-attached scintillation proximity beads (stock 50 mg/ml). Binding reactions were carried out in 96-well white polystyrene assay plates (Corning, #3600). The following was added sequentially to each well: 20 μl of water or 20 μl of human serum (Cellgro Cat #35-060-CL), 5 μl of serially diluted compound (in 50% DMSO/50% integrase SPA buffer), 5 μl of [^3H]-compound I (6,000 cpm/μl in SPA buffer) and 20 μl of bead/DNA/enzyme complex. The plates were shaken for 2 hours and then allowed to sit at room temperature without shaking overnight. The [^3H]-compound I binding was measured using a Topcount scintillation counter. Cheng and Prusoff equations were used to convert the inhibition of compound 1 binding into the corresponding Ki value.

HIV-integrase = HIV-integrase (Human immunodeficiency virus type 1 group M subtype B, UniProt P12497); assay: HIV-Integrase Inhibition Activity (SPA strand transfer assay)
Procedure: HIV-Integrase Inhibition Activity. To evaluate in-vitro activity against HIV-integrase, 5 pmole of biotin labeled substrate DNA was bound to 100 μg of Streptavidin coated PVT SPA beads (Amersham Pharmacia Biotech). Recombinant integrase (0.26 ng) was incubated with the beads for 90 min at 37° C. Unbound enzyme was removed by washing the complex followed by addition of inhibitors and 0.1 fmol of P33 labeled target DNA. The reaction was stopped by adding EDTA to a final concentration of 10 mM. Samples were counted in TopCountNXT (Packard) and the CPM was used as a measure of integration. […] Activity equal to A refers to a compound having IC50=0.002 to 0.10 μM while B and C denote compounds having IC50=0.1 to 1.0 μM and IC50≧1.0 μM respectively.

| SMILES | EC50 [1] [nM] | Ki (purified integrase) [nM] | IC50 (HIV-integrase) [nM] |
| --- | --- | --- | --- |
| Cn1c(C2CCOC2)nc(C(=O)NCc2ccccc2N2CCCCS2(=O)=O)c(O)c1=O (stereo not drawn) [Example 8] | 3 to 100 | 3 to 50 | – |
| Cn1c(C2CCOC2)nc(C(=O)NCc2ccc(F)cc2S(C)(=O)=O)c(O)c1=O (stereo not drawn) [Example 7, N-(4-fluoro-2-(methylsulfonyl)benzyl)-5-hydroxy-1-methyl-6-oxo-2-(tetrahydrofuran-3-yl)-1,6-dihydropyrimidine-4-carboxamide] | 3 to 100 | 3 to 50 | – |
| Cc1ncnn1-c1cc(F)ccc1CNC(=O)c1nc(C2CCOC2)n(C)c(=O)c1O (stereo not drawn) [Example 4, N-(4-fluoro-2-(5-methyl-1H-1,2,4-triazol-1-yl)benzyl)-5-hydroxy-1-methyl-6-oxo-2-(tetrahydrofuran-3-yl)-1,6-dihydropyrimidine-4-carboxamide] | 3 to 100 | 3 to 50 | – |
| Cn1c(C2CCOC2)nc(C(=O)NCc2ccc(F)cc2-n2cncn2)c(O)c1=O (stereo not drawn) [Example 3, N-(4-fluoro-2-(1H-1,2,4-triazol-1-yl)benzyl)-5-hydroxy-1-methyl-6-oxo-2-(tetrahydrofuran-3-yl)-1,6-dihydropyrimidine-4-carboxamide] | 3 to 100 | 1 to 3 | – |
| CN(C)S(=O)(=O)c1cc(F)ccc1CNC(=O)c1nc(C2CCOC2)n(C)c(=O)c1O (stereo not drawn) [Example 10, N-(2-(N,N-dimethylsulfamoyl)-4-fluorobenzyl)-5-hydroxy-1-methyl-6-oxo-2-(tetrahydrofuran-3-yl)-1,6-dihydropyrimidine-4-carboxamide] | 3 to 100 | 3 to 50 | – |
| Cc1cnnn1-c1cc(F)ccc1CNC(=O)c1nc(C2CCOCC2)n(C)c(=O)c1O [Example 20, N-(4-fluoro-2-(5-methyl-1H-1,2,3-triazol-1-yl)benzyl)-5-hydroxy-1-methyl-6-oxo-2-(tetrahydro-2H-pyran-4-yl)-1,6-dihydropyrimidine-4-carboxamide] | 3 to 100 | 3 to 50 | – |
| Cn1c(C2CCOC2)nc(C(=O)NCc2ccc(F)cc2N2CCN(CCO)C2=O)c(O)c1=O (stereo not drawn) [Example 14, N-(4-fluoro-2-(3-(2-hydroxyethyl)-2-oxoimidazolidin-1-yl)benzyl)-5-hydroxy-1-methyl-6-oxo-2-(tetrahydrofuran-3-yl)-1,6-dihydropyrimidine-4-carboxamide] | 3 to 100 | 1 to 3 | – |
| CSC1COCC1c1nc(C(=O)NCc2ccc(F)cc2)c(O)c(=O)n1C (stereo not drawn) [Example 16, N-(4-Fluorobenzyl)-5-hydroxy-1-methyl-2-(4-(methylthio)tetrahydrofuran-3-yl)-6-oxo-1,6-dihydropyrimidine-4-carboxamide] | 3 to 100 | – | 2 to 100 |
| COCCN1CCN(c2cc(F)ccc2CNC(=O)c2nc(C3CCOC3)n(C)c(=O)c2O)C1=O (stereo not drawn) [Example 13, N-(4-fluoro-2-(3-(2-methoxyethyl)-2-oxoimidazolidin-1-yl)benzyl)-5-hydroxy-1-methyl-6-oxo-2-(tetrahydrofuran-3-yl)-1,6-dihydropyrimidine-4-carboxamide] | 3 to 100 | 1 to 3 | – |
| Cn1c(C2COCC2O)nc(C(=O)NCc2ccc(F)cc2)c(O)c1=O (stereo not drawn) [Example 15, N-(4-Fluorobenzyl)-5-hydroxy-2-(4-hydroxytetrahydrofuran-3-yl)-1-methyl-6-oxo-1,6-dihydropyrimidine-4-carboxamide] | 3 to 100 | – | 2 to 100 |
| Cn1ncnc1-c1cc(F)ccc1CNC(=O)c1nc(C2CCOC2)n(C)c(=O)c1O (stereo not drawn) [Example 6, N-(4-fluoro-2-(1-methyl-1H-1,2,4-triazol-5-yl)benzyl)-5-hydroxy-1-methyl-6-oxo-2-(tetrahydrofuran-3-yl)-1,6-dihydropyrimidine-4-carboxamide] | 3 to 100 | 3 to 50 | – |
| CN1CCN(c2cc(F)ccc2CNC(=O)c2nc(C3CCOC3)n(C)c(=O)c2O)C1=O (stereo not drawn) [Example 12, N-(4-fluoro-2-(3-methyl-2-oxoimidazolidin-1-yl)benzyl)-5-hydroxy-1-methyl-6-oxo-2-(tetrahydrofuran-3-yl)-1,6-dihydropyrimidine-4-carboxamide] | 3 to 100 | 1 to 3 | – |
| Cn1cnnc1-c1cc(F)ccc1CNC(=O)c1nc(C2CCOC2)n(C)c(=O)c1O (stereo not drawn) [Example 11, N-(4-fluoro-2-(4-methyl-4H-1,2,4-triazol-3-yl)benzyl)-5-hydroxy-1-methyl-6-oxo-2-(tetrahydrofuran-3-yl)-1,6-dihydropyrimidine-4-carboxamide] | 3 to 100 | 1 to 3 | – |
| Cn1c(C2CCOCC2)nc(C(=O)NCc2ccc(F)cc2S(C)(=O)=O)c(O)c1=O [Example 22, N-(4-fluoro-2-(methylsulfonyl)benzyl)-5-hydroxy-1-methyl-6-oxo-2-(tetrahydro-2H-pyran-4-yl)-1,6-dihydropyrimidine-4-carboxamide] | 3 to 100 | 3 to 50 | – |
| Cn1cnnc1-c1cc(F)ccc1CNC(=O)c1nc(C2CCOCC2)n(C)c(=O)c1O [Example 26, N-(4-fluoro-2-(4-methyl-4H-1,2,4-triazol-3-yl)benzyl)-5-hydroxy-1-methyl-6-oxo-2-(tetrahydro-2H-pyran-4-yl)-1,6-dihydropyrimidine-4-carboxamide] | 3 to 100 | 1 to 3 | – |
| Cn1ncnc1-c1cc(F)ccc1CNC(=O)c1nc(C2CCOCC2)n(C)c(=O)c1O [Example 21, N-(4-fluoro-2-(1-methyl-1H-1,2,4-triazol-5-yl)benzyl)-5-hydroxy-1-methyl-6-oxo-2-(tetrahydro-2H-pyran-4-yl)-1,6-dihydropyrimidine-4-carboxamide] | 3 to 100 | 1 to 3 | – |
| Cn1c(C2CCOC2)nc(C(=O)NCc2ccc(F)cc2)c(O)c1=O (stereo not drawn) [Example 1, N-(4-Fluorobenzyl)-5-hydroxy-1-methyl-6-oxo-2-(tetrahydrofuran-3-yl)-1,6-dihydropyrimidine-4-carboxamide] | 3 to 100 | – | 2 to 100 |
| Cn1c(C2CCOCC2)nc(C(=O)NCc2ccc(F)cc2-n2cncn2)c(O)c1=O [Example 18, N-(4-fluoro-2-(1H-1,2,4-triazol-1-yl)benzyl)-5-hydroxy-1-methyl-6-oxo-2-(tetrahydro-2H-pyran-4-yl)-1,6-dihydropyrimidine-4-carboxamide] | 3 to 100 | 3 to 50 | – |
| Cc1cc(CNC(=O)c2nc(C3CCOC3)n(C)c(=O)c2O)ccc1F (stereo not drawn) [Example 2, N-(4-Fluoro-3-methylbenzyl)-5-hydroxy-1-methyl-6-oxo-2-(tetrahydrofuran-3-yl)-1,6-dihydropyrimidine-4-carboxamide] | 3 to 100 | – | 2 to 100 |
| Cc1ncnn1-c1cc(F)ccc1CNC(=O)c1nc(C2CCOCC2)n(C)c(=O)c1O [Example 19, N-(4-fluoro-2-(5-methyl-1H-1,2,4-triazol-1-yl)benzyl)-5-hydroxy-1-methyl-6-oxo-2-(tetrahydro-2H-pyran-4-yl)-1,6-dihydropyrimidine-4-carboxamide] | 3 to 100 | 3 to 50 | – |
| CN(C)S(=O)(=O)c1cc(F)ccc1CNC(=O)c1nc(C2CCOCC2)n(C)c(=O)c1O [Example 23, N-(2-(N,N-dimethylsulfamoyl)-4-fluorobenzyl)-5-hydroxy-1-methyl-6-oxo-2-(tetrahydro-2H-pyran-4-yl)-1,6-dihydropyrimidine-4-carboxamide] | 3 to 100 | 3 to 50 | – |
| Cn1c(C2CCOCC2)nc(C(=O)NCc2ccccc2N2CCCCS2(=O)=O)c(O)c1=O [Example 25] | 3 to 100 | 3 to 50 | – |
| Cc1cnnn1-c1cc(F)ccc1CNC(=O)c1nc(C2CCOC2)n(C)c(=O)c1O (stereo not drawn) [Example 5, N-(4-fluoro-2-(5-methyl-1H-1,2,3-triazol-1-yl)benzyl)-5-hydroxy-1-methyl-6-oxo-2-(tetrahydrofuran-3-yl)-1,6-dihydropyrimidine-4-carboxamide] | 3 to 100 | 3 to 50 | – |
| Cn1c(C2CCOCC2)nc(C(=O)NCc2ccc(F)cc2)c(O)c1=O [Example 17, N-(4-Fluorobenzyl)-5-hydroxy-1-methyl-6-oxo-2-(tetrahydro-2H-pyran-4-yl)-1,6-dihydropyrimidine-4-carboxamide] | 3 to 100 | – | 2 to 100 |
